Assay results published in patent US6162610A, “Xanthan-ester and acridan substrates for horseradish peroxidase” (Tropix, Inc., priority 1998, dated 2000).

Experiments:
[1] = target: T1, horseradish peroxidase (HRP, Type VIA) (Armoracia rusticana, UniProt P00433); assay: Comparison of Xanthene substrate (14) and Enhanced Chemiluminescence (ECL), HRP dilution series; format: biochemical; conditions: for RLU: Xanthene substrate with 4-phenylphenol, Emerald II, read after 40 minutes; for S/N: Xanthene substrate, 40 minutes
T1 sequence (P00433 31-338 limits assumed): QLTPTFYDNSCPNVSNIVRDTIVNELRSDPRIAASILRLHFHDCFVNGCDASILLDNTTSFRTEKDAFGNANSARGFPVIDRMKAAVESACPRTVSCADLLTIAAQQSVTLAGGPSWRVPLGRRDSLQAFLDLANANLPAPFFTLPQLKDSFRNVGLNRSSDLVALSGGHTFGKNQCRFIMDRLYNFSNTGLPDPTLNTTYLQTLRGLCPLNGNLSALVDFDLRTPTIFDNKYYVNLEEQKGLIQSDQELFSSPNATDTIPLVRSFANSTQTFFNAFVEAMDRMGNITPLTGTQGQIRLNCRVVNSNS
Procedure: The following conditions were used for the comparison of ECL(a commercially available optimized reagent containing Luminol-an amino-substituted cyclic acylhydrazide) and Xanthene substrate (14). ECL reagents were obtained from Amersham and were used as recommended by the manufacturer. Aliquots of horseradish peroxidase (HRP, Type VIA), 10 μL, containing 0,0.5, 5.0, 50.0, 500.0 and 5000.0 attomoles HRP were then added to 0.13 mL of each reagent formulation. To evaluate Xanthene substrate, hydrogen peroxide (10 μL of a 3.5 mM stock) was added to 10 μL of each HRP dilution and the reaction was initiated by addition of a solution of 0.12 mL of 1.17 mM Xanthene substrate in 0.1 M citrate buffer pH 7.0 containing 1.22 mM 4-phenylphenol, 0.42 mg/mL hydroxypropylmethylcellulose and 0.167 mg/mL Emerald II. The chemiluminescent signal was measured in a Dynatech ML3000 luminometer after 1 minute for ECL and 40 minutes for Xanthene substrate.

HRP [2] = assay: Effect of detergents and polymers on chemiluminescent signal from xanthene substrate with HRP; format: biochemical, horseradish; conditions: H2O2, no HRP, 19 minute incubation, citrate buffer pH 7.0
Procedure: (§1) Detergent was added to the buffer solution to increase the solubility of the assay components. The use of polymeric quaternary amines, neutral detergents and cationic detergents was compared using polyvinylbenzyltributylammonium chloride (Sapphire II, Tropix), Tween-20 (Sigma) and […] (CTAB, Sigma). Luminescence was measured in white opaque microplate wells using a Dynatech ML3000 luminometer. First, background signal was measured after the addition of hydrogen peroxide (10 μL of 3.5 mM stock solution) to 0.12 mL of 1.17 mM xanthene substrate (14) in 0.1 M citrate buffer pH 7.0 containing, 0.42 mg/mL hydroxypropylmethylcellulose and 4-iodophenol (iodophenol concentration was 71.4 μg/mL for the Sapphire II and Tween-20 solutions and 178.6 μg/mL for the CTAB solution) after a 19 minute incubation. HRP, 10 μL containing 5 fmol, was added to each well and the chemiluminescence was measured after a 19 min incubation.

HRP [3] = target: T2, HRP (Armoracia rusticana, UniProt P00433); assay: as above; format: biochemical, horseradish; conditions: 5 fmol HRP; for Signal + HRP: 19 min incubation
T2 sequence (P00433 31-338 limits assumed): T1 sequence (P00433 31-338 limits assumed)
Procedure: as §1

[4] = Tween-20, 4-iodophenol 71.4 μg/mL

Compound: O=C(Oc1ccccc1)C1c2ccccc2Oc2cc(O)ccc21 (stereo not shown) [compound 14, 3-Hydroxy-9H-9-xanthene-carboxylic acid, phenyl ester]
- RLU ([1]; HRP 0.5 amol): 14.12 RLU
- S/N ([1]; HRP 0.5 amol): 1.11
- RLU ([1]; HRP 5 amol): 17.52 RLU
- S/N ([1]; HRP 5 amol): 1.37
- RLU ([1]; HRP 50 amol): 63.12 RLU
- S/N ([1]; HRP 50 amol): 4.95
- RLU ([1]; HRP 500 amol): 353.31 RLU
- S/N ([1]; HRP 500 amol): 27.70
- RLU ([1]; HRP 5000 amol): 740.51 RLU
- S/N ([1]; HRP 5000 amol): 58.06
- Background (HRP [2]; CTAB, 4-iodophenol 178.6 μg/mL): 2.45
- Background (HRP [2]; Sapphire II (polyvinylbenzyltributylammonium chloride), 4-iodophenol 71.4 μg/mL): 14.83
- Background (HRP [2]; [4]): 0.0242
- S/N (HRP [3]; CTAB): 1.5
- Signal + HRP (HRP [3]; CTAB, 4-iodophenol 178.6 μg/mL): 3.78
- S/N (HRP [3]; Sapphire II): 15.4
- Signal + HRP (HRP [3]; Sapphire II, 4-iodophenol 71.4 μg/mL): 229.05
- S/N (HRP [3]; Tween-20): 1.8
- Signal + HRP (HRP [3]; [4]): 0.0439
